{
  "source": "patent US20250025461A1",
  "about": "“TREATMENT OF SEVERE AND UNCOMPLICATED MALARIA” (PURDUE RESEARCH FOUDATION, priority 2021, published 2025)",
  "test_system": "P. falciparum malaria",
  "assay": "Phase 1/2 open-label imatinib monotherapy trial vs standard-of-care (SOC)",
  "format": "in vivo, human",
  "description": "Generic imatinib mesylate was purchased from TEVA Pharmaceuticals (Jerusalem, Israel) and was provided to patients in two 200 mg tablets per dose to conform with the usual quantity of imatinib indicated for treatment of chronic myelogenous leukemia. CV-Artecan, the standard-of-care (SOC) for treatment of P. falciparum malaria in Vietnam was purchased from OPC Pharmaceutical (Ho Chi Minh City, Vietnam) and was administered to patients as a tablet containing 40 mg dihydroartemisinin plus 320 mg piperaquine phosphate.\nP. falciparum-infected males of age 16-55 years with no complicating co-morbidities that had not received an anti-malarial drug within the previous 4 weeks were eligible for two trials, i.e., imatinib monotherapy and imatinib plus SOC (Im+SOC) triple combination therapy. Those individuals who met eligibility criteria and provided informed written consent were enrolled in the trial.\nThe phase 1/2 “imatinib monotherapy trial” was an open-label trial aimed at determining the safety and tolerability of imatinib in adult male patients with uncomplicated P. falciparum malaria. Patients were randomly assigned to either a standard-of-care (SOC) control arm (n=8) in which they received 40 mg dihydroartemisinin plus 320 mg piperaquine phosphate orally twice (12 hours apart) on the first day and then once a day on the following 2 days, or an imatinib monotherapy arm (n=7) in which they received 400 mg of imatinib mesylate orally with a meal and full glass of water once a day for five days.\nDuring both trials, patient temperatures and peripheral blood parasite levels were monitored before, during and after the trial on days 0, 1, 2, 3, 5, 7, 28, and 42. Patients were also examined for the usual symptoms of P. falciparum malaria, including fever, chills, headache, fatigue, anorexia, and mild diarrhea.\nPrimary endpoints for both studies were safety and tolerability. Secondary endpoints were reduction in parasitemia for the imatinib monotherapy study and both reduction in parasitemia and decline in pyrexia for the Im+SOC study. Safety and tolerability were assessed at protocol-specified time points and adverse events were classified as toxicities not normally associated with P. falciparum malaria, including edema, rashes, and severe diarrhea, etc. […] Attribution of imatinib to adverse events was assessed using a 5-point scale: not related, unlikely related, possibly related, probably related, and definitely related.\nA mixed ANOVA was conducted to determine the effect of drug treatment on parasitemia and pyrexia. Post-hoc multi-comparison testing was used to determine which time points were statistically different. […] SOC treatment cohorts from each individual trial were analyzed separately. […]",
  "note": "Structures can show the parent of a compound that is named as a salt.",
  "data": [
    {"smiles": "Cc1ccc(NC(=O)c2ccc(CN3CCN(C)CC3)cc2)cc1Nc1nccc(-c2cccnc2)n1", "note": "[imatinib, imatinib mesylate]", "values": [
      {"measurement": "drug-related toxicity (analyses of blood parameters and body temperatures)", "setting": "400 mg imatinib orally once a day for five days", "result": "no evidence of drug-related toxicity"},
      {"measurement": "participants who experienced a rise in parasitemia and had to be transferred to SOC", "setting": "imatinib alone, n=7", "result": "two of the seven"},
      {"measurement": "apparent accelerated decrease in pyrexia vs SOC (mixed ANOVA, FIG. 1D)", "setting": "p-value=0.7029", "result": "did not achieve statistical significance"},
      {"measurement": "number of parasitized cells per microliter of blood (FIG. 1A)", "setting": "peripheral blood, before, during and after treatment, n=7", "result": "decrease"}
    ]}
  ]
}
